Reference: PubChem BioAssay (NCI)
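Cultured in 96-well plates, cells were exposed to test compound for 48 hours across five concentrations. GI50 = concentration required for 50% inhibition of growth. TGI: total growth inhibition.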

What was measured:
Assay in all cases: NCI-60 cell line screen, 48 h; in the data active = GI50 below about 0.43 µM; inactive = the rest
[1] = tested on: SF-268 CNS
[2] = tested on: HOP-62 NSCLC
[3] = tested on: SNB-75 CNS
[4] = tested on: TK-10 renal
[5] = tested on: A498 renal
[6] = tested on: NCI-H23 lung
[7] = tested on: RXF 393 renal
[8] = tested on: KM12 colon
[9] = tested on: SF-295 CNS
[10] = tested on: SW-620 colon
[11] = tested on: NCI-H522 lung
[12] = tested on: OVCAR-8 ovarian
[13] = tested on: HCT-116 colon
[14] = tested on: M14 melanoma
[15] = tested on: HS 578T breast
[16] = tested on: SK-MEL-28 melanoma
[17] = tested on: NCI/ADR-RES ovarian
[18] = tested on: SK-OV-3 ovarian
[19] = tested on: SNB-19 CNS
[20] = tested on: MOLT-4 leukemia
[21] = tested on: MCF7 breast
[22] = tested on: NCI-H226 lung
[23] = tested on: OVCAR-3 ovarian
[24] = tested on: 786-0 renal
[25] = tested on: IGROV1 ovarian
[26] = tested on: HCT-15 colon
[27] = tested on: RPMI-8226 leukemia
[28] = tested on: NCI-H460 lung
[29] = tested on: HCC-2998 colon
[30] = tested on: COLO 205 colon
[31] = tested on: CAKI-1 renal
[32] = tested on: U251 CNS
[33] = tested on: UACC-62 melanoma
[34] = tested on: HL-60(TB) leukemia
[35] = tested on: CCRF-CEM leukemia
[36] = tested on: EKVX NSCLC
[37] = tested on: SK-MEL-2 melanoma
[38] = tested on: BT-549 breast
[39] = tested on: SF-539 CNS
[40] = tested on: A549 NSCLC
[41] = tested on: UACC-257 melanoma
[42] = tested on: PC-3 prostate
[43] = tested on: MALME-3M melanoma
[44] = tested on: OVCAR-5 ovarian
[45] = tested on: SN12C renal
[46] = tested on: HOP-92 NSCLC
[47] = tested on: SR leukemia
[48] = tested on: SK-MEL-5 melanoma
[49] = tested on: ACHN renal
[50] = tested on: MDA-MB-435
[51] = tested on: HT29 colon
[52] = tested on: OVCAR-4 ovarian
[53] = tested on: DU-145 prostate
[54] = tested on: LOX IMVI melanoma
[55] = tested on: MDA-MB-231 breast
[56] = tested on: T-47D breast
[57] = tested on: UO-31 renal
[58] = tested on: K-562 leukemia

Cn1c2ccccc2c(=O)c2c(O)cc3c(c21)C=CC1(CCCC1)O3
> 100 µM: TGI [1] | TGI [2] | TGI [3] | TGI [4] | TGI [5] | TGI [6] | TGI [7] | TGI [8] | TGI [9] | TGI [10] | TGI [11] | TGI [12] | TGI [13] | TGI [14] | TGI [15] | TGI [16] | TGI [17] | TGI [18] | TGI [19] | TGI [20] | TGI [21] | TGI [22] | TGI [23] | TGI [24] | TGI [25] | TGI [26] | TGI [27] | TGI [28] | TGI [29] | TGI [30] | TGI [31] | TGI [32] | TGI [33] | TGI [34] | TGI [35] | TGI [36] | TGI [37] | TGI [38] | TGI [39] | TGI [40] | TGI [41] | TGI [42] | TGI [43] | TGI [44] | TGI [45] | TGI [46] | TGI [47] | TGI [48] | TGI [49] | TGI [50] | TGI [51] | TGI [52] | TGI [53] | TGI [54] | TGI [55]

O=C1C(Cl)=C(Nc2cccc(C(F)(F)F)c2)C(=O)N1Cc1ccccc1Cl
37.5 µM: TGI [4]
12.2 µM: TGI [50]
18.2 µM: TGI [42]
37 µM: TGI [36] | TGI [44]
26.5 µM: TGI [58] | TGI [52]
18.1 µM: TGI [38]
29.4 µM: TGI [19]
20.9 µM: TGI [12]
> 43.6 µM: TGI [57]
16.5 µM: TGI [24]
17.1 µM: TGI [49]
9.55 µM: TGI [3]
> 31.8 µM: TGI [21]
13.7 µM: TGI [33]
27.5 µM: TGI [40]
28 µM: TGI [29] | TGI [47]
5.27 µM: TGI [13]
26.9 µM: TGI [16]
22.4 µM: TGI [28]
23.2 µM: TGI [6]
32.9 µM: TGI [51]
11.2 µM: TGI [25]
19.1 µM: TGI [14]
25.4 µM: TGI [2]
16.8 µM: TGI [45]
43.5 µM: TGI [15]
26.8 µM: TGI [17]
17.4 µM: TGI [55]
13.8 µM: TGI [32]
> 23.5 µM: TGI [27]
23.3 µM: TGI [43]
28.4 µM: TGI [46]
35.8 µM: TGI [30]
29.7 µM: TGI [41]
21.6 µM: TGI [31]
3.75 µM: TGI [54]
29.6 µM: TGI [53]
20.6 µM: TGI [26]
inactive: GI50 [1] 7.7 µM | GI50 [2] 12.6 µM | GI50 [3] 0.996 µM | GI50 [4] 14 µM | GI50 [5] 5.06 µM | GI50 [56] 12.8 µM | GI50 [6] 5.45 µM | GI50 [7] 1.12 µM | GI50 [8] 12.1 µM | GI50 [9] 2.39 µM | GI50 [10] 2.38 µM | GI50 [11] 0.49 µM | GI50 [12] 2.71 µM | GI50 [13] 1.25 µM | GI50 [14] 6.21 µM | GI50 [15] 8.34 µM | GI50 [16] 8.21 µM | GI50 [17] 10.1 µM | GI50 [57] 5.01 µM | GI50 [18] 20.3 µM | GI50 [19] 13.1 µM | GI50 [20] 2.56 µM | GI50 [21] 4.21 µM | GI50 [23] 4.33 µM | GI50 [24] 1.78 µM | GI50 [26] 3.42 µM | GI50 [27] 2.17 µM | GI50 [28] 6.19 µM | GI50 [29] 12.6 µM | GI50 [30] 12 µM | GI50 [31] 4.84 µM | GI50 [32] 2.1 µM | GI50 [33] 3.18 µM | GI50 [35] 1.23 µM | GI50 [36] 15.7 µM | GI50 [37] 4.08 µM | GI50 [38] 1.95 µM | GI50 [39] 1.91 µM | GI50 [40] 7.68 µM | GI50 [41] 13.7 µM | GI50 [42] 4.72 µM | GI50 [43] 1.54 µM | GI50 [44] 18.3 µM | GI50 [45] 3.96 µM | GI50 [46] 8.34 µM | GI50 [47] 3.72 µM | GI50 [48] 2.79 µM | GI50 [49] 4.84 µM | GI50 [50] 2.49 µM | GI50 [58] 4.36 µM | GI50 [51] 4.9 µM | GI50 [52] 6.58 µM | GI50 [53] 14 µM | GI50 [54] 1.41 µM | GI50 [55] 2.67 µM
26.1 µM: TGI [1]
3.01 µM: TGI [22]
39.8 µM: TGI [18]
40.7 µM: TGI [56]
24.8 µM: TGI [23]
19.8 µM: TGI [11] | TGI [37]
24.9 µM: TGI [9]
active: GI50 [22] 0.0858 µM | GI50 [25] 0.186 µM
14.7 µM: TGI [48]
10.7 µM: TGI [39]
33.5 µM: TGI [8]
19.7 µM: TGI [5]
8.53 µM: TGI [20]
22.2 µM: TGI [10]
10.4 µM: TGI [7]
